Like-named read-outs stand apart in the source and are kept apart here.
Experiments:
quail chymotrypsin = experiment: ATEE assay: inhibition of quail intestinal chymotrypsin activity; assay type: biochemical, Japanese quail; details: compound 1 x 10⁻⁵M; ATEE substrate; percentage inhibition of control activity ± standard deviation (n = 3); 5 min, 10 µM
Procedure: The substrate was prepared by dissolving ATEE (10 mg) in Tris-HCl buffer of pH 7.5 containing 30% (v/v) of methanol (25 ml). The quail intestine protease activity was partially purified as described above prior to testing for chymotrypsin activity. The reaction was carried out in a quartz cuvette (1 x 0.25 x 1 cm³) containing substrate (1 ml) and 100 mM Tris-HCl buffer (200 µl). The reaction was started by the addition of the partially purified intestine protease (200 µl) and followed bv the decrease in absorbance at 237 nm over a 5 minute period. All determinations were carried out in triplicate against a reagent blank.

pigeon trypsin = experiment: TAME assay: inhibition of pigeon intestinal trypsin activity; assay type: biochemical; details: for Inhibition of Activity: compound 60 µg/ml, TAME substrate, percentage inhibition of control activity ± standard deviation (n = 3), 5 min
Procedure: (§1) Dried avian intestine powder (500 mg) was extracted for 30 minutes in 1 mM HC₁ (5 ml). The extract was centrifuged at 22,000 x g for 30 minutes at 4°C. The resultant supernatant was applied to a column of Sephadex G-50, medium grade (360 mm x 15 mm) and eluted with 0.5 mM HCl at 0.7 ml/min. Fractions (3.5 ml) were collected and tested for the presence of protein by determining their absorbance at 280 nm. The proteinaceous fractions were bulked and concentrated by passing them through an ultrafiltration unit (YM 30 filter). The concentrate was collected and kept at 4°C throughout its use.
The substrate was prepared by dissolving TAME (19 mg) in a mixture of 100 mM Tris-HCl buffer of pH 7.5 (50 ml) and 5% (w/v) calcium chloride solution (2 ml). The pigeon intestine protease was partially purified as described above prior to testing for trypsin activity. The reaction was carried out in a quartz cuvette (1 x 0.25 x 1 cm³) containing substrate (3 ml) and 100 mM Tris-HCl buffer pH 7.5 (100 µl). The reaction was started by the addition of the partially purified intestine protease (100 µl) and followed by the decrease in absorbance at 247 nm over a 5 minute period.
(§2) In both the chymotrypsin and the trypsin assays a control was however carried out using the 200 µl of buffer containing no added compound.

feral pigeons [1] = experiment: Four day two-choice feeding test with feral pigeons; assay type: in vivo; details: for Mean consumption of treated food: four day two-choice, 0.5% w/w compound/pellet
Procedure: (§3) Feral pigeons were transferred from a communal outdoor aviary to individual cages and maintained on a 10 hour light - 14 hour dark cycle. Birds were gradually weaned away from their normal diet of maize, wheat and maple peas to a standard laboratory diet of turkey starter pellets.
(§4) The pellets were oven dried and then left to absorb atmospheric moisture. The control food was sprayed with the same volume of acetone/water mixture.
(§5) A group of 35 feral pigeons was caged individually for the trials which used eight compounds of formula (I) together with sucrose octaacetate and dimethyl anthranilate, both of which are substances which are known to be avian repellents. Each bird was subjected to treatment with each compound in a random order subject to the limitation of a latin square design. Each treatment was presented to the birds in no-choice and two-choice conditions. The no-choice phase lasted 3 days, during which a bird was presented with a single bowl containing 120 g of treated food. Each bird was weighed before and after the no-choice phase, as was the amount of food remaining. There immediately followed a two-choice phase in which the birds could choose between food treated with a given chemical and a bowl containing otherwise identical pellets without the chemical (the control treatment utilising two bowls of acetone/water treated pellets, one of which was arbitrarily selected as the control). The two-choice phase lasted four days during which food consumption was monitored daily. The position of the food bowls was alternated each day in order to overcome the confusing of food preference with position preference and ample water and grit were supplied throughout the trial.
The data obtained in the four day two-choice test is presented in Table 5 for mean consumption of treated food. […]

feral pigeons [2] = experiment: Three day no-choice feeding test with feral pigeons; assay type: in vivo; details: 0.5% w/w compound/pellet, ± standard deviation; for Mean weight difference: after the test compared with before; for Mean consumption: treated food
Procedure: as §3, §4, §5

[3] = pear buds
bullfinch trypsin = experiment: BAEE assay: inhibition of bullfinch intestinal trypsin activity; assay type: biochemical; details: compound 1 x 10⁻⁵M; BAEE substrate; percentage inhibition of control activity ± standard deviation (n = 3); 7 min, 10 µM
Procedure: as §1
The substrate was prepared bv dissolving BAEE (10 mg) in a mixture of 50 mM Tris-HCl buffer of pH 7.5 (24 ml) and 5% (w/v) calcium chloride solution (1 ml). The bullfinch intestine protease activity was partially purified as described above prior to testing for trypsin activity. The reaction was carried out in a quartz cuvette (1 x 0.25 x 1 cm³) containing substrate (1 ml) and 50 mM Tris-HCl buffer (200 µl). The reaction was started by the addition of the partially purified intestine protease 1200 µl) and followed by the decrease in absorbance at 253 nm over a 7 minute period. All determinations were carried out in triplicate against a reagent blank.
as §2

Japanese quail [4] = experiment: Feeding trial with choice, Japanese quail; assay type: in vivo; details: for Increase in body weight: value is for the birds offered both diets; for Average food eaten: treated diet eaten
Text: (§6) (A) Six week old female japanese quail were preconditoned by weighing them seven days before the start of the feeding trial. Five quail were placed in each of four cages and each cage was provided with a different diet, these being (a) a control diet of standard turkey starter crumbs (TSC), (b) TSC treated with 5,000 ppm cinnamamide, (c) TSC treated with 5,000 ppm 4-hydroxy-3,5-dimethoxycinnamic acid, and (d) TSC treated with 2,500 ppm cinnamamide + 2,500 ppm 4-hydroxy-3,5-dimethoxycinnamic acid. The treated TSC was prepared in each case by dissolving/-suspending the compound or compounds in diethyl ether (1500 ml) and mixing this with TSC (2000 g) at 0.25% or 0.5% w/w concentration compound/TSC in an industrial food mixer for 1 hour to evaporate off the diethyl ether and produce a homogeneous mixture. The control was prepared by mixing TSC (2000 g) with diethyl ether for 1 hour in an industrial food mixer. The amount of each diet consumed and the weight gain of the birds was recorded on a daily basis for a period of 14 days. The trial was carried out in duplicate.
(B) In a variation of the treatment decribed in (A) four quail were placed in each of four cages and each cage was offered a choice between a control diet of TSC and TSC treated with one of (a) 5,000 ppm cinnamamide, (b) 2,500 ppm cinnamamide, (c) 1,000 ppm cinnamamide, and (d) 2,500 ppm cinnamamide + 2,500 ppm 4-hydroxy-3,5-dimethoxycinnamic acid. The various diets were prepared as described under (A).
The results of the trial are presented in Table 3, together with the standard deviation. It will be seen that in each case the birds consume less treated than untreated food and that although the weight gain was the least for the birds offered the control + 5,000 ppm cinnamamide diets, it was the 2,500 ppm cinnamamide + 2,500 ppm 4-hydroxy-3,5-dimethoxycinnamic acid diet which was least consumed.

Japanese quail [5] = experiment: No choice feeding trial with Japanese quail; assay type: in vivo; details: 5,000 ppm additive in turkey starter crumbs, 14 days, ± standard deviation
Text: as §6
The results of the trial are presented in Table 2, together with the standard deviation. It will be seen that diets (b) and (d) produced a decreased increase in body weight as compared with the control diet (a). It should be appreciated that increased consumption, which apparently occurs with diets (c) and (d), can be the result of a compensation against the occurrence of the enzyme inhibitory effect and a consequent reduction in value of the food consumed.

[6] = choice between control diet and diet with 1,000 ppm additive
[7] = choice between control diet and diet with 2,500 ppm additive
[8] = choice between control diet and diet with 5,000 ppm additive

Row | SMILES | Inhibition of Activity Chymotrypsin (quail chymotrypsin) [percentage] | Inhibition of Activity (pigeon trypsin) [percentage] | Mean consumption of treated food (feral pigeons [1]) [grams] | Mean weight difference (feral pigeons [2]) [grams] | Mean consumption (feral pigeons [2]) [grams] | residues as a percentage of the initial level ([3]; 192 h) [%] | Inhibition of Activity Trypsin (bullfinch trypsin) [percentage] | activity against pigeon intestinal trypsin (pigeon trypsin; statement in words) | deterrent effect on food consumption (feral pigeons [1]; two-choice test, proportions of treated and untreated food consumed, statement in words) | Increase in body weight (Japanese quail [4]; [6]) [g/bird/day] | Increase in body weight (Japanese quail [4]; [7]) [g/bird/day] | Increase in body weight (Japanese quail [4]; [8]) [g/bird/day] | deterrent effect on food consumption (Japanese quail [4]; quail, statement in words) | Average food eaten (Japanese quail [4]; [6]) [g/bird/day] | Average food eaten (Japanese quail [4]; [7]) [g/bird/day] | Average food eaten (Japanese quail [4]; [8]) [g/bird/day] | Average food eaten (Japanese quail [5]) [g/bird/day] | Increase in body weight (Japanese quail [5]) [g/bird/day] | residues as a percentage of the initial level ([3]; 1224 h) [%]
1 | O=C(O)C=Cc1ccc(O)c(O)c1 [3,4-Dihydroxycinnamic acid] | 85 ± 2 | 22 ± 1 | 31.1 ± 3.4 | 2.3 ± 1.1 | 63.3 ± 3.0 | 8 | 43 ± 3 |  |  |  |  |  |  |  |  |  |  |  | 
2 | NC(=O)C=Cc1ccccc1 [Cinnamamide, cinnamamide] | 5 ± 1 | 0 | 6.0 ± 1.5 | -16.2 ± 1.3 | 22.3 ± 2.7 |  | 64 ± 2 | no activity was observed | most marked | 1.29 ± 0.10 | 1.34 ± 0.20 | 0.66 ± 0.10 | a deterrent effect on food consumpton was noted | 6 ± 0.2 | 5 ± 0.4 | 4 ± 0.2 | 17 ± 0.3 | 0.14 ± 0.04 | 
3 | O=C(O)C=Cc1ccccc1 [Cinnamic Acid, cinnamic acid] | 32 ± 3 | 93 ± 3 | 25.2 ± 2.9 | 2.4 ± 1.1 | 60.4 ± 3.1 | 41 | 85 ± 2 |  |  |  |  |  |  |  |  |  |  |  | 3

Reference: patent EP0321208A1, “Improvements in or relating to avian control” (priority 1987, dated 1989)
